# Measured values from ChEMBL document CHEMBL1124513, “Synthesis and antitumor activity of ribavirin imidates. A new facile synthesis of ribavirin amidine (1-beta-D-ribofuranosyl-1,2,4-triazole-3-carboxamidine hydrochloride)” (J Med Chem, 1989).
# Several values for one entry are separate records, joined by “and”; a condition that tells them apart may be missing. Identical values can stand only once.
# Key:
# L1210 [1] = experiment: Residual leukemic cell populations after last treatment in L1210 leukemic mice treated with 1333 mg/kg of compound (qd, day 1); format: functional, Mus musculus
# L1210 [2] = experiment: Residual leukemic cell populations after last treatment in L1210 leukemic mice treated with 288 mg/kg of compound (qd, day 1-7); format: functional, Mus musculus
# Mus musculus [3] = experiment: Post inoculation life span in L1210 leukemic mice treated with 3704 mg/kg of compound (qd, day 1); Tested in 6 mice; format: functional
# Mus musculus [4] = experiment: Compound was evaluated for leukemia related splenomegaly in DBA2 mice spleen weight was determined ~ 24 hour after the last treatment at schedule of administration = qd, day 1,3, 5, 7, 9, 11 at a dose 800 mg/kg; Toxic; format: ADME, organism-based; parameters: dose 800 mg/kg; conditions: in vivo
# L1210 [5] = experiment: (§1) Residual leukemic cell populations after last treatment in L1210 leukemic mice treated with 800 mg/kg of compound (qd, day 1); format: functional, Mus musculus
# Mus musculus [6] = experiment: Post inoculation life span in L1210 leukemic mice treated with 2222 mg/kg of compound (qd, day 1); Tested in 6 mice; format: functional
# L1210 [7] = experiment: as §1; format: functional, Mus musculus; remark: listed apart in the source
# Mus musculus [8] = experiment: Post inoculation life span in L1210 leukemic mice treated with 288 mg/kg of compound (qd, day 1-7); Tested in 6 mice; format: functional
# Mus musculus [9] = experiment: Post inoculation life span in L1210 leukemic mice treated with 480 mg/kg of compound (qd, day 1-7); Tested in 6 mice; format: functional
# L1210 [10] = experiment: Residual leukemic cell populations after last treatment in L1210 leukemic mice treated with 400 mg/kg of compound (qd, day 1); format: functional, Mus musculus
# L1210 [11] = experiment: Residual leukemic cell populations after last treatment in L1210 leukemic mice treated with 800 mg/kg of compound (qd, day 1-7); Toxic; format: toxicity, organism-based; parameters: dose 800 mg/kg; conditions: mouse, in vivo
# Mus musculus [12] = experiment: Post inoculation life span in L1210 leukemic mice treated with 800 mg/kg of compound (qd, day 1-7); Tested in 6 mice; format: functional
# L1210 [13] = experiment: Residual leukemic cell populations after last treatment in L1210 leukemic mice treated with 288 mg/kg of compound (qd, day 1); format: functional, Mus musculus
# Mus musculus [14] = experiment: Compound was evaluated for leukemia related splenomegaly in DBA2 mice spleen weight was determined ~ 24 hour after the last treatment at schedule of administration = qd, day 1,3, 5, 7, 9, 11 at a dose 480 mg/kg; format: functional
# Mus musculus [15] = experiment: Post inoculation life span in L1210 leukemic mice treated with 288 mg/kg of compound (qd, day 1); Tested in 6 mice; format: functional
# L1210 [16] = experiment: Residual leukemic cell populations after last treatment in L1210 leukemic mice treated with 488 mg/kg of compound (qd, day 1-7); Toxic; format: toxicity, organism-based; parameters: dose 488 mg/kg; conditions: mouse, in vivo
# L1210 [17] = experiment: Residual leukemic cell populations after last treatment in L1210 leukemic mice treated with 2222 mg/kg of compound (qd, day 1); Toxic; format: toxicity, organism-based; parameters: dose 2222 mg/kg; conditions: mouse, in vivo
# Mus musculus [18] = experiment: Post inoculation life span in L1210 leukemic mice treated with 1333 mg/kg of compound (qd, day 1); format: functional
# Mus musculus [19] = experiment: Post inoculation life span in L1210 leukemic mice treated with 480 mg/kg of compound (qd, day 1); Tested in 6 mice; format: functional
# Mus musculus [20] = experiment: Compound was evaluated for leukemia related splenomegaly in DBA2 mice spleen weight was determined ~ 24 hour after the last treatment at schedule of administration = qd, day 1,3, 5, 7, 9, 11 at a dose 1333 mg/kg; Toxic; format: ADME, organism-based; parameters: dose 1333 mg/kg; conditions: in vivo
# L1210 [21] = experiment: Residual leukemic cell populations after last treatment in L1210 leukemic mice treated with 3704 mg/kg of compound (qd, day 1); Toxic; format: toxicity, organism-based; parameters: dose 3704 mg/kg; conditions: mouse, in vivo
# Mus musculus [22] = experiment: Post inoculation life span in L1210 leukemic mice treated with 800 mg/kg of compound (qd, day 1); Tested in 6 mice; format: functional
# Mus musculus [23] = experiment: (§2) Post inoculation life span in L1210 leukemic mice treated with 480 mg/kg of compound (qd, day 1-7); format: functional
# Mus musculus [24] = experiment: (§3) Post inoculation life span in L1210 leukemic mice treated with 480 mg/kg of compound (qd, day 1); format: functional
# Mus musculus [25] = experiment: Post inoculation life span in L1210 leukemic mice treated with 480 mg/kg of compound (tid, day 1); format: functional
# L1210 [26] = experiment: Residual leukemic cell populations after last treatment in L1210 leukemic mice treated with 480 mg/kg of compound (qd, day 1,4,7); format: functional, Mus musculus
# Mus musculus [27] = experiment: Post inoculation life span in L1210 leukemic mice treated with 480 mg/kg of compound (bid, day 1,3,5,7); format: functional
# L1210 [28] = experiment: Residual leukemic cell populations after last treatment in L1210 leukemic mice treated with 480 mg/kg of compound (tid, day 1); format: functional, Mus musculus
# L1210 [29] = experiment: Residual leukemic cell populations after last treatment in L1210 leukemic mice treated with 480 mg/kg of compound (bid, day 1,3,5,7); format: functional, Mus musculus
# L1210 [30] = experiment: Residual leukemic cell populations after last treatment in L1210 leukemic mice treated with 480 mg/kg of compound (qd, day 1,3,5,7); format: functional, Mus musculus
# L1210 [31] = experiment: Residual leukemic cell populations after last treatment in L1210 leukemic mice treated with 480 mg/kg of compound (bid, day 1); format: functional, Mus musculus
# Mus musculus [32] = experiment: Compound was evaluated for leukemia related splenomegaly in DBA2 mice spleen weight was determined ~ 24 hour after the last treatment at schedule of administration = qd, day 1,3, 5, 7, 9, 11 at a dose 400 mg/kg; format: functional
# Mus musculus [33] = experiment: Compound was evaluated for leukemia related splenomegaly in DBA2 mice spleen weight was determined ~ 24 hour after the last treatment at schedule of administration at qd, day 1,3, 5, 7, 9, 11 at a dose 288 mg/kg; format: functional
# Mus musculus [34] = experiment: Post inoculation life span in L1210 leukemic mice treated with 480 mg/kg of compound (qid, day 1); format: functional
# L1210 [35] = experiment: Residual leukemic cell populations after last treatment in L1210 leukemic mice treated with 480 mg/kg of compound (bid, day 1-7); Toxic; format: toxicity, organism-based; parameters: dose 480 mg/kg; conditions: mouse, in vivo
# L1210 [36] = experiment: Residual leukemic cell populations after last treatment in L1210 leukemic mice treated with 480 mg/kg of compound (tid, day 1,3,5,7); Toxic; format: toxicity, organism-based; parameters: dose 480 mg/kg; conditions: mouse, in vivo
# L1210 [37] = experiment: (§4) Residual leukemic cell populations after last treatment in L1210 leukemic mice treated with 480 mg/kg of compound (qd, day 1); format: functional, Mus musculus
# Mus musculus [38] = experiment: Post inoculation life span in L1210 leukemic mice treated with 480 mg/kg of compound (qd, day 1,4,7); format: functional
# Mus musculus [39] = experiment: Post inoculation life span in L1210 leukemic mice treated with 480 mg/kg of compound (bid, day 1); format: functional
# Mus musculus [40] = experiment: Post inoculation life span in L1210 leukemic mice treated with 480 mg/kg of compound (qd, day 1,3,5,7); format: functional
# Mus musculus [41] = experiment: Post inoculation life span in L1210 leukemic mice treated with 480 mg/kg of compound (tid, day 1-7); format: functional
# Mus musculus [42] = experiment: Compound was evaluated for leukemia related splenomegaly in DBA2 mice spleen weight was determined ~ 24 hour after the last treatment at schedule of administration at bid, day 1,3, 5, 7, 9, 11 at a dose 288 mg/kg; format: functional
# Mus musculus [43] = experiment: Compound was evaluated for leukemia related splenomegaly in DBA2 mice spleen weight was determined ~ 24 hour after the last treatment at schedule of administration at bid, day 1,3, 5, 7, 9, 11 at a dose 400 mg/kg; Toxic; format: ADME, organism-based; parameters: dose 400 mg/kg; conditions: in vivo
# L1210 [44] = experiment: Residual leukemic cell populations after last treatment in L1210 leukemic mice treated with 480 mg/kg of compound (qid, day 1); Toxic; format: toxicity, organism-based; parameters: dose 480 mg/kg; conditions: mouse, in vivo
# Mus musculus [45] = experiment: as §3; format: functional; remark: listed apart in the source
# Mus musculus [46] = experiment: Post inoculation life span in L1210 leukemic mice treated with 480 mg/kg of compound (tid, day 1,3,5,7); format: functional
# L1210 [47] = experiment: as §4; format: functional, Mus musculus; remark: listed apart in the source
# Mus musculus [48] = experiment: Post inoculation life span in L1210 leukemic mice treated with 480 mg/kg of compound (bid, day 1-7); format: functional
# L1210 [49] = experiment: Residual leukemic cell populations after last treatment in L1210 leukemic mice treated with 480 mg/kg of compound (tid, day 1-7); Toxic; format: functional, organism-based; parameters: dose 480 mg/kg; conditions: Mus musculus
# Mus musculus [50] = experiment: as §2; format: functional; remark: listed apart in the source
structure (smiles),measurement,setting,value
CCOC(=N)c1ncn(C2O[C@H](CO)[C@@H](O)[C@H]2O)n1 (stereo not given in full),Control,L1210 [1],1.3%
same,Control,L1210 [2],27%
same,T/C,Mus musculus [3],48%
same,Spleen weight,Mus musculus [4],Toxic
same,Control,L1210 [5],1.7%
same,T/C,Mus musculus [6],92%
same,Control,L1210 [7],0.4%
same,T/C,Mus musculus [8],144%
same,T/C,Mus musculus [9],134%
same,Control,L1210 [10],1.1%
same,Control,L1210 [11],Toxic
same,T/C,Mus musculus [12],70%
same,Control,L1210 [13],1.7%
same,Spleen weight,Mus musculus [14],1257 mg
same,T/C,Mus musculus [15],114%
same,Control,L1210 [16],Toxic
same,Control,L1210 [17],Toxic
same,T/C,Mus musculus [18],149%
same,T/C,Mus musculus [19],149%
same,Spleen weight,Mus musculus [20],Toxic
same,Control,L1210 [21],Toxic
same,T/C,Mus musculus [22],159% and 144%
COC(=N)c1ncn([C@@H]2O[C@H](CO)[C@@H](O)[C@H]2O)n1,T/C,Mus musculus [23],162% and 97%
same,T/C,Mus musculus [24],114%
same,T/C,Mus musculus [25],153%
same,Control,L1210 [26],73%
same,T/C,Mus musculus [27],162%
same,Control,L1210 [28],0.6%
same,Control,L1210 [29],12%
same,Control,L1210 [30],46%
same,Control,L1210 [31],9%
same,Spleen weight,Mus musculus [32],216 mg
same,Spleen weight,Mus musculus [33],599 mg
same,T/C,Mus musculus [34],60%
same,Control,L1210 [35],Toxic
same,Control,L1210 [36],Toxic
same,Control,L1210 [37],30% and 21%
same,T/C,Mus musculus [38],119%
same,T/C,Mus musculus [39],125%
same,T/C,Mus musculus [40],121%
same,T/C,Mus musculus [41],61%
same,Spleen weight,Mus musculus [42],150 mg
same,Spleen weight,Mus musculus [43],Toxic
same,Control,L1210 [44],Toxic
same,T/C,Mus musculus [45],113% and 116%
same,T/C,Mus musculus [46],76%
same,Control,L1210 [47],32%
same,T/C,Mus musculus [48],101%
same,Control,L1210 [49],Toxic
same,T/C,Mus musculus [50],142%
